Assay results as given in paper doi:10.1101/2024.02.27.582382, “Distinct roles of the major binding residues in the cation-binding pocket of MelB” (bioRxiv, 2024).
Like-named read-outs stand apart in the source and are kept apart here.

Tests used:
[1] = target: T1, MelBSt (melibiose permease of Salmonella enterica serovar Typhimurium) (Salmonella enterica, UniProt P30878, D55C); assay: biochemical
T1 construct: gene melB
Excerpt: ITC on MelBSt (melibiose permease of Salmonella enterica serovar Typhimurium)

[2] = target: T2, MelBSt (melibiose permease of Salmonella enterica serovar Typhimurium) (Salmonella enterica, UniProt P30878); assay: ITC; assay type: binding; settings: pH 8.5, 25 °C, Na+-free, 20 mM Tris-HCl, 100 mM choline chloride, 0.035% UDM
T2 construct: gene melB; full length, C-terminal His10 tag (plasmid pK95 delta-AH/MelBSt/CHis10), expressed in E. coli DW2; modelled residues 2-454 or 2-456
T2 sequence (P30878 whole entry, the tested form may be a part): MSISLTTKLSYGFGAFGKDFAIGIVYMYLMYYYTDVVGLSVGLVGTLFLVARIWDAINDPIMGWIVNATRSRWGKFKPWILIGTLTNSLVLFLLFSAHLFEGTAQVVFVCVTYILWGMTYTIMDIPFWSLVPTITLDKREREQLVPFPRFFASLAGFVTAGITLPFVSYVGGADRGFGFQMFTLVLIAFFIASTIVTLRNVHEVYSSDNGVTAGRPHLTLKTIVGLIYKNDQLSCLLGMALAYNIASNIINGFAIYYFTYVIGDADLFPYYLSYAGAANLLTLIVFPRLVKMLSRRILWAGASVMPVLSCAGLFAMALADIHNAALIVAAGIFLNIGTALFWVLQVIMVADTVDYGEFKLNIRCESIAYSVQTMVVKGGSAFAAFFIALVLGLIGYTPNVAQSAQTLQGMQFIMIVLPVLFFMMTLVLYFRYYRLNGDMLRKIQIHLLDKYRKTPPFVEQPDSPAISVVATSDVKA

Asp59 = Asp59 (UniProt position 59, WDAINDPIMGW); assay: ITC; settings: cited from earlier work

T1 sequence (P30878 whole entry D55C): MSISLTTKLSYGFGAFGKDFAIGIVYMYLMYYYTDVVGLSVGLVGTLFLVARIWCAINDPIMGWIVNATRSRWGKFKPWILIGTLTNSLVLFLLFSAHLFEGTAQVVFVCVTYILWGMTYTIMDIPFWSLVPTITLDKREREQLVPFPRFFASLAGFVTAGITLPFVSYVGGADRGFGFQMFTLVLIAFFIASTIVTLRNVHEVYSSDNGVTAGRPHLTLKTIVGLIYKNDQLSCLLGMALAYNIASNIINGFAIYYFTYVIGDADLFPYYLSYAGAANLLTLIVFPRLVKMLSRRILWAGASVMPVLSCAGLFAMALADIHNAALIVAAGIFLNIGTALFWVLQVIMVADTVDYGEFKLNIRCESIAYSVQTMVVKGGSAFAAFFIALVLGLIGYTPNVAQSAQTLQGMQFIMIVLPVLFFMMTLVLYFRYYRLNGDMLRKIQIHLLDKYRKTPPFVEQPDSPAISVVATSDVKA

Work on `OC[C@H]1O[C@H](OC[C@H]2OC(O)[C@H](O)[C@@H](O)[C@@H]2O)[C@H](O)[C@@H](O)[C@H]1O` (some centres unmarked) [melibiose] yielded a Kd ([1]; read-out: Melibiose, pH 7.5, 25 °C, no Na+ or Li+, UDM) of 5.82 ± 0.46 mM and a Kd [2] of 8.5 ± 0.21 mM.

Work on `O=[N+]([O-])c1ccc(O[C@H]2O[C@H](CO)[C@H](O)[C@H](O)[C@H]2O)cc1` [α-NPG, 4-nitrophenyl-α-D-galactopyranoside] yielded a Kd [1] of 0.0151 ± 0.00186 mM.

In the case of “Melibiose permease MelB (MelBSt) (Salmonella enterica serovar Typhimurium)”, the pKa (Asp59; absence of melibiose (sugar-free)) is listed as 6.25 and the pKa (Asp59; presence of melibiose) is listed as “approximately 6.5”.
